Results as given in the supplement of paper PMC10627819.

How the values were obtained:
S. aureus DSM 20231 = experiment: Bliss interaction score (quartile over a dose matrix) (fitness difference); higher = more antagonism (negative = synergy)
Summary of the method: (§1)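 Each OD595 reading at entry into stationary phase was scaled to the robust mean of the untreated wells on its plate, with a ceiling of 1. These ratios define fitness, and single-drug fitness was inferred from combinations. The Bliss score compares observed fitness with the product-based expectation and is reported as quartiles across all replicate types, technical, biological and donor/recipient.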

S. aureus Newman = experiment: as above
Summary of the method: as §1

S. pneumoniae D39V [1] = experiment: as above
Summary of the method: as §1

B. subtilis 168 [2] = experiment: as above
Summary of the method: as §1

S. pneumoniae D39V [3] = experiment: fitness (endpoint OD595 vs no drug) (fraction); higher = more growth
Summary of the method: (§2)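 Plates with 384 wells were inoculated at OD595 0.01 using 30 µl of TSB, LB Lennox or CY, or 55 µl for S. pneumoniae. Incubation was at 37 °C, with OD595 measured every 30 min for 14 h. Fitness is the stationary-phase transition optical density over the robust mean of no-drug control wells, after first-reading background subtraction; it is capped at 1.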

B. subtilis 168 [4] = experiment: as above
Summary of the method: as §2
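Wherever Bliss interaction score (quartile over a dose matrix) is given: first quartile when negative (synergy) and third quartile when positive (antagonism).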

CC(=O)NC[C@H]1CN(c2ccc(N3CCOCC3)c(F)c2)C(=O)O1 [Linezolid] + C/C(=C\C(=O)OCCCCCCCCC(=O)O)C[C@@H]1OC[C@H](C[C@@H]2O[C@H]2[C@@H](C)[C@H](C)O)[C@@H](O)[C@H]1O [Pseudomonic acid]
Conditions	Bliss interaction score
B. subtilis 168 [2]	-0.0357
S. aureus DSM 20231	0.0202
S. aureus Newman	0.0446
S. pneumoniae D39V [1]	0.121

fitness, S. pneumoniae D39V [3]
Conditions	first compound 0.2 µg/mL	first compound 0.4 µg/mL	first compound 0.42 µg/mL	first compound 0.8 µg/mL
partner 0.03 µg/mL	0.862	0.731	0.275	0.411
partner 0.06 µg/mL	0.796	0.753	0.233	–
partner 0.12 µg/mL	0.626	0.611	0.183	0.427

CC(=O)NC[C@H]1CN(c2ccc(N3CCOCC3)c(F)c2)C(=O)O1 [Linezolid] + CO[C@H]1/C=C/O[C@@]2(C)Oc3c(C)c(O)c4c(O)c(c(/C=N/N5CCN(C)CC5)c(O)c4c3C2=O)NC(=O)/C(C)=C\C=C\[C@H](C)[C@H](O)[C@@H](C)[C@@H](O)[C@@H](C)[C@H](OC(C)=O)[C@@H]1C [Rifampicin]
Conditions	Bliss interaction score
B. subtilis 168 [2]	-0.0404
S. aureus DSM 20231	-0.0505
S. aureus Newman	-0.0225
S. pneumoniae D39V [1]	-0.0681

fitness, S. pneumoniae D39V [3]
Conditions	first compound 0.105 µg/mL	first compound 0.2 µg/mL	first compound 0.21 µg/mL	first compound 0.42 µg/mL	first compound 0.8 µg/mL
partner 0.05 µg/mL	–	0.69	0.182	0.171	0.348
partner 0.1 µg/mL	0.17	–	0.135	0.103	0.216
partner 0.2 µg/mL	0.127	–	0.0997	0.113	–

fitness, S. pneumoniae D39V [3], one replicate
Conditions	first compound 0.2 µg/mL	first compound 0.4 µg/mL	first compound 0.8 µg/mL
partner 0.025 µg/mL	0.809	0.685	0.298
partner 0.2 µg/mL	0	0	0

CC(=O)NC[C@H]1CN(c2ccc(N3CCOCC3)c(F)c2)C(=O)O1 [Linezolid] + Clc1ccc(COC(Cn2ccnc2)c2ccc(Cl)cc2Cl)c(Cl)c1 [Miconazole]
Conditions	Bliss interaction score
B. subtilis 168 [2]	0.047
S. aureus DSM 20231	-0.0366
S. aureus Newman	-0.0524
S. pneumoniae D39V [1]	0.199

fitness, S. pneumoniae D39V [3]
Conditions	first compound 0.105 µg/mL	first compound 0.2 µg/mL	first compound 0.21 µg/mL	first compound 0.4 µg/mL	first compound 0.42 µg/mL	first compound 0.8 µg/mL
partner 1.073 µg/mL	–	0.924	–	0.751	–	0.431
partner 1.25 µg/mL	0.835	–	0.653	–	0.566	–
partner 2.145 µg/mL	–	0.929	–	0.765	–	0.428
partner 2.5 µg/mL	0.807	–	0.691	–	0.524	–
partner 4.29 µg/mL	–	0.957	–	0.804	–	0.54
partner 5 µg/mL	0.842	–	0.74	–	0.502	–

CC(=O)NC[C@H]1CN(c2ccc(N3CCOCC3)c(F)c2)C(=O)O1 [Linezolid] + O=C1CN(/N=C/c2ccc([N+](=O)[O-])o2)C(=O)N1 [Nitrofurantoin]
Conditions	Bliss interaction score
B. subtilis 168 [2]	-0.141
S. aureus DSM 20231	-0.0317
S. aureus Newman	-0.0829
S. pneumoniae D39V [1]	-0.147

fitness, S. pneumoniae D39V [3]
Conditions	first compound 0.105 µg/mL	first compound 0.2 µg/mL	first compound 0.21 µg/mL	first compound 0.4 µg/mL	first compound 0.42 µg/mL	first compound 0.8 µg/mL
partner 1.285 µg/mL	–	0.79	–	0.695	–	0.291
partner 2 µg/mL	0.784	–	0.688	–	0.522	–
partner 2.57 µg/mL	–	0.791	–	0.683	–	0.259
partner 4 µg/mL	0.795	–	0.705	–	0.488	–
partner 8 µg/mL	0.618	–	0.346	–	0.151	–

S. pneumoniae D39V [3], partner 5.14 µg/mL, one replicate
Conditions	fitness
first compound 0.2 µg/mL	0.735
first compound 0.4 µg/mL	0.534
first compound 0.8 µg/mL	0.239

CO[C@@H]1[C@@H](OC(N)=O)[C@@H](O)[C@H](Oc2ccc3c(O)c(NC(=O)c4ccc(O)c(CC=C(C)C)c4)c(=O)oc3c2C)OC1(C)C [Novobiocin] + CC1=C\[C@@H](O)CC(=O)Cc2nc(co2)C(=O)N2CCC=C2C(=O)O[C@H](C(C)C)[C@H](C)/C=C/C(=O)NC\C=C\1 [Virginiamycin M1]
Conditions	Bliss interaction score
B. subtilis 168 [2]	0.0734
S. aureus DSM 20231	0.0833
S. aureus Newman	0.0284
S. pneumoniae D39V [1]	0.108

fitness, B. subtilis 168 [4]
Conditions	first compound 0.0125 µg/mL	first compound 0.025 µg/mL	first compound 0.05 µg/mL
partner 0.0625 µg/mL	0.925	0.987	0.97
partner 0.125 µg/mL	0.942	0.954	0.948
partner 0.25 µg/mL	0.922	0.997	0.937

fitness, B. subtilis 168 [4], one replicate
Conditions	first compound 0.125 µg/mL	first compound 0.25 µg/mL	first compound 0.5 µg/mL
partner 0.0625 µg/mL	0.967	0.867	0.58
partner 0.125 µg/mL	0.973	0.875	0.571
partner 0.25 µg/mL	0.927	0.884	0.561

CO[C@@H]1[C@@H](OC(N)=O)[C@@H](O)[C@H](Oc2ccc3c(O)c(NC(=O)c4ccc(O)c(CC=C(C)C)c4)c(=O)oc3c2C)OC1(C)C [Novobiocin] + CCN(CC)CCOC(=O)c1ccc(N)cc1 [Procaine]
Conditions	Bliss interaction score
B. subtilis 168 [2]	0.0449
S. aureus DSM 20231	0.0431
S. aureus Newman	0.0326
S. pneumoniae D39V [1]	-0.109

fitness, B. subtilis 168 [4]
Conditions	first compound 0.0125 µg/mL	first compound 0.025 µg/mL	first compound 0.05 µg/mL
partner 85.5 µg/mL	0.915	0.973	0.863
partner 171 µg/mL	0.921	0.974	0.865
partner 342 µg/mL	0.898	0.884	0.87

fitness, B. subtilis 168 [4], one replicate
Conditions	first compound 0.125 µg/mL	first compound 0.25 µg/mL	first compound 0.5 µg/mL
partner 85.5 µg/mL	0.905	0.822	0.543
partner 171 µg/mL	0.856	0.821	0.562
partner 342 µg/mL	0.866	0.784	0.638

CO[C@@H]1[C@@H](OC(N)=O)[C@@H](O)[C@H](Oc2ccc3c(O)c(NC(=O)c4ccc(O)c(CC=C(C)C)c4)c(=O)oc3c2C)OC1(C)C [Novobiocin] + CN1C2=CC=CC=C2N=C3C1=CC=CC3=O [Pyocyanin]
Conditions	Bliss interaction score
B. subtilis 168 [2]	-0.137
S. aureus DSM 20231	0.044
S. aureus Newman	0.0744
S. pneumoniae D39V [1]	0.116

fitness, B. subtilis 168 [4]
Conditions	first compound 0.0125 µg/mL	first compound 0.025 µg/mL	first compound 0.05 µg/mL
partner 1.25 µg/mL	0.881	0.916	0.929
partner 2.5 µg/mL	0.847	0.827	0.858
partner 5 µg/mL	0.733	0.71	0.749

fitness, B. subtilis 168 [4], one replicate
Conditions	first compound 0.125 µg/mL	first compound 0.25 µg/mL	first compound 0.5 µg/mL
partner 1.25 µg/mL	0.837	0.701	0.13
partner 2.5 µg/mL	0.788	0.441	0.0992
partner 5 µg/mL	0.454	0.229	0.164

CO[C@@H]1[C@@H](OC(N)=O)[C@@H](O)[C@H](Oc2ccc3c(O)c(NC(=O)c4ccc(O)c(CC=C(C)C)c4)c(=O)oc3c2C)OC1(C)C [Novobiocin] + CN(C)c1cc(NC(=O)CNC(C)(C)C)c(O)c2c1C[C@H]1C[C@H]3[C@H](N(C)C)C(O)=C(C(N)=O)C(=O)[C@@]3(O)C(O)=C1C2=O [Tigecycline]
Conditions	Bliss interaction score
B. subtilis 168 [2]	0.034
S. aureus DSM 20231	0.079
S. aureus Newman	0.03
S. pneumoniae D39V [1]	0.0803

fitness, B. subtilis 168 [4]
Conditions	first compound 0.0125 µg/mL	first compound 0.025 µg/mL	first compound 0.05 µg/mL
partner 0.039 µg/mL	0.971	≥ 1	≥ 1
partner 0.078 µg/mL	0.952	0.986	0.977
partner 0.156 µg/mL	0.937	0.964	0.947

fitness, B. subtilis 168 [4], one replicate
Conditions	first compound 0.05 µg/mL	first compound 0.1 µg/mL	first compound 0.125 µg/mL	first compound 0.2 µg/mL	first compound 0.25 µg/mL	first compound 0.5 µg/mL
partner 0.039 µg/mL	–	–	0.893	–	0.888	0.501
partner 0.078 µg/mL	–	–	0.924	–	0.818	0.508
partner 0.125 µg/mL	≥ 1	≥ 1	–	≥ 1	–	–
partner 0.156 µg/mL	–	–	0.866	–	0.77	0.607
partner 0.25 µg/mL	0.943	0.95	–	≥ 1	–	–
partner 0.5 µg/mL	0.953	≥ 1	–	0.999	–	–

CO[C@@H]1[C@@H](OC(N)=O)[C@@H](O)[C@H](Oc2ccc3c(O)c(NC(=O)c4ccc(O)c(CC=C(C)C)c4)c(=O)oc3c2C)OC1(C)C [Novobiocin] + CN(N=O)C(=O)N[C@@H](C=O)[C@@H](O)[C@H](O)[C@H](O)CO [Streptozotocin]
Conditions	Bliss interaction score
B. subtilis 168 [2]	0.0669
S. aureus DSM 20231	0.0969
S. aureus Newman	0.0508
S. pneumoniae D39V [1]	-0.105

fitness, B. subtilis 168 [4], one replicate
Conditions	first compound 0.0125 µg/mL	first compound 0.025 µg/mL	first compound 0.05 µg/mL	first compound 0.125 µg/mL	first compound 0.25 µg/mL	first compound 0.5 µg/mL
partner 0.15 µg/mL	0.914	≥ 1	0.877	0.869	0.925	0.516
partner 0.3 µg/mL	0.982	≥ 1	≥ 1	0.858	0.839	0.516
partner 0.6 µg/mL	0.993	≥ 1	0.945	≥ 1	0.871	0.504

CO[C@@H]1[C@@H](OC(N)=O)[C@@H](O)[C@H](Oc2ccc3c(O)c(NC(=O)c4ccc(O)c(CC=C(C)C)c4)c(=O)oc3c2C)OC1(C)C [Novobiocin] + CN[C@@H]1[C@H](O)[C@H](NC)[C@H]2O[C@@]3(O)C(=O)C[C@@H](C)O[C@H]3O[C@@H]2[C@H]1O [Spectinomycin]
Conditions	Bliss interaction score
B. subtilis 168 [2]	0.075
S. aureus DSM 20231	0.0538
S. aureus Newman	0.0698
S. pneumoniae D39V [1]	-0.0939

fitness, B. subtilis 168 [4]
Conditions	first compound 0.0125 µg/mL	first compound 0.025 µg/mL	first compound 0.05 µg/mL
partner 2 µg/mL	0.949	0.929	0.971
partner 4 µg/mL	0.967	0.948	≥ 1
partner 8 µg/mL	0.949	0.924	0.944

fitness, B. subtilis 168 [4], one replicate
Conditions	first compound 0.125 µg/mL	first compound 0.25 µg/mL	first compound 0.5 µg/mL
partner 2 µg/mL	0.898	0.779	0.526
partner 4 µg/mL	0.945	0.867	0.649
partner 8 µg/mL	0.963	0.957	0.577
